These are literature values, as cited in patent US20110263720A1, “SYNTHESIS OF ALPHA-TOCOPHEROLQUINONE DERIVATIVES, AND METHODS OF USING THE SAME” (Penwest Pharmaceuticals Co., priority 2010, published 2011).

For this series, the system named is mitochondrial function. To be noted: in vitro; compared with CoQ10; background statement, no data.

On to `CC1=C(C)C(=O)C(CC[C@](C)(O)CCC[C@H](C)CCC[C@H](C)CCCC(C)C)=C(C)C1=O` [R,R,R-alpha-tocopherolquinone], for which the “potency in enhancing mitochondrial function” value is reported as “far more potent than CoQ^10”.
